Entries after “also recorded” stand apart in the source; their conditions may differ.
How the values were obtained:
[1] = system: breast epithelial proliferation; settings: three premenopausal volunteers; cited from earlier work
[2] = system: contralateral breast cancer; settings: postmenopausal breast cancer patients; cited from earlier work
[3] = system: WID-Breast29 (mean methylation level of 37 CpGs) in breast tissue; test: WID-Breast29 in breast biopsies before and after treatment (clinical trials, Set 3); format: in vivo, human
Excerpt: Set 3: to assess the performance of the WID-Breast29 test monitoring preventive measures in real time. The samples were obtained from two clinical trials (FIG. 4) as follows.
Trial 1 was “Mifepristone treatment prior to insertion of a levonorgestrel releasing intrauterine system for improved bleeding control—a randomised controlled trial” (1) (EudraCT number: 2009-009014-40; Regional ethical review board at Karolinska Institutet permit 2009/144-31/4). The primary objective was to assess the effect of mifepristone pre-treatment on the initial bleeding pattern after insertion of a levonorgestrel releasing intrauterine system. An included secondary objective was to study the effect of mifepristone on breast tissue.
Trial 2 was “The Effect of a Progesterone Receptor Modulator on Breast Tissue in Women with BRCA-1 and -2 Mutations” (ClinicalTrials.gov Identifier: NCT01898312; regional ethical review board at Karolinska Institutet permit 2012/729 31/1). The core objective of this ongoing study is to assess the safety and effect of treatment with mifepristone on epithelial cell proliferation in human breast tissue in women with BRCA-1 or -2 mutations prior to protective mastectomy.
(§1) Study subjects for both trials were healthy premenopausal women aged 18 and above with regular menstrual cycles lasting 25-35 days and with no contraindications to mifepristone. The main exclusion criteria were: use of any hormonal or intrauterine contraception and pregnancy or breastfeeding two months prior to the study; a history of breast cancer or other malignancies and adnexal abnormality upon transvaginal ultrasound examination. All women were instructed to use barrier contraceptive methods throughout the duration of the study. After signing an informed consent, study subjects in both trials were randomised 1:1 or 1:2 into the vitamin arm (Triobe®—used as a comparator in these studies) or mifepristone arm in Trial 1 and Trial 2, respectively. One group (i.e. 16 BRCA carriers and 28 controls) was treated with 50 mg mifepristone (one quarter of 200 mg Mifegyne®, Exelgyn, Paris, France) every other day for two months in Trial 1 (n=28) and three months in Trial 2 (n=16) starting on the first day of the menstrual cycle. As mifepristone is only available in 200 mg tablets in Sweden, a study nurse divided the tablets into 4 parts (each 50 mg) and instructed the study subjects to take one part every other day. The other group (i.e. 8 BRCA carriers and 29 controls) received Triobe® tablets which are visually identical to mifepristone and were also divided into 4 parts [one quarter of TrioBe® contains 0.125 mg cyanocobalamin (Vitamin B12), 0.2 mg folic acid (Vitamin B9), and 0.75 mg Pyridoxinhydrochlorid (Vitamin B6)]. Tablets were dispensed for two weeks at a time. […]

[4] = system: WID-Breast5 (mean PMR of MTA1, HOXD12, LHX8, NEUROD1, CBLN4) in breast tissue; test: WID-Breast5 (MethyLight PMR) in breast biopsies before and after treatment (Set 3); format: in vivo, human
Excerpt: as §1, with “time. Core needle aspiration biopsies were collected during the luteal phase before treatment and at the end of treatment during the luteal phase (vitamin treatment) or corresponding time of the cycle (mifepristone treatment). The biopsies were collected under ultrasound guidance from the upper outer quadrant of one breast using a 14 Gauge needle with an outer diameter of 2.2 mm. The end-of-treatment breast biopsy was taken from the same area. From Trial 1, 12 women from each of the vitamin and mifepristone groups were included in this study; of these, 11 and 9 women, respectively, had provided sufficient DNA from the pre- and post-treatment biopsies for subsequent processing and analysis.” for “time.”
Sodium bisulfite conversion of genomic DNA and the MethyLight assay were performed as previously described (A. Jones et al., Role of DNA methylation and epigenetic silencing of HAND2 in endometrial cancer development. PLoS Med 10, e1001551 (2013)). […] The percentage of fully methylated molecules at a specific locus has been calculated by dividing the GENE:COL2A1 ratio of a sample by the GENE:COL2A1 ratio of SssI-treated human white blood cell DNA and multiplied by 100. […]

breast tissue = settings: healthy women; cited from earlier work
mammary cancer = settings: mice; cited from earlier work
[5] = system: BRCA-mediated breast cancer; settings: rodents; cited from earlier work
[6] = biopsies before and after 2-3 month treatment

Denosumab: fully humanised monoclonal antibody that binds RANKL
effect on breast epithelial proliferation [1]: reduce breast epithelial proliferation | impact on the incidence of contralateral breast cancer [2]: does not appear to impact

CC#C[C@]1(O)CC[C@H]2[C@@H]3CCC4=CC(=O)CCC4=C3[C@@H](c3ccc(N(C)C)cc3)C[C@@]21C [mifepristone]
BRCA mutant volunteers not showing a reduction of the WID-Breast29 after treatment ([3]; BRCA mutant volunteers (4/11)): 36% | women exhibiting a lower WID-Breast29 after treatment ([3]; all women of the group (15 vitamins, 20 mifepristone), biopsies before and after 2-3 month treatment): 80% | change in WID-Breast29 after treatment (paired-sample t-test) [3, 6]: highly significant reduction; also recorded: significantly reduced | control volunteers showing a reduction of the WID-Breast29 after treatment ([3]; healthy control volunteers (n=9)): 100% | BRCA mutant volunteers not showing a reduction of the WID-Breast5 after treatment ([4]; BRCA mutant volunteers (6/10)): 60% | women exhibiting a lower WID-Breast5 after treatment ([4]; all women of the group (12 vitamins, 16 mifepristone), biopsies before and after 2-3 month treatment): 75% | change in WID-Breast5 after treatment (paired-sample t-test) [4, 6]: highly significant reduction; also recorded: significantly reduced | control volunteers showing a reduction of the WID-Breast5 after treatment ([4]; healthy control volunteers (n=6)): 100% | effect on proliferation in breast tissue (breast tissue): antiproliferative effect | effect on mammary cancer development (mammary cancer): reduce mammary cancer development | prevention of BRCA-mediated breast cancer formation [5]: can be prevented
